We go through two compounds from patent publication US7939546B2, “Quinoline derivatives for modulating DNA methylation” (SuperGen, Inc., priority 2007, dated 2011).

One assay concerns p16. The assay is described as follows: RT-PCR assay for gene expression (p16) in RKO and HCT-116 cells. It counts as cell-based. Particulars: for RNA expression levels of p16: FIG. 1, varying concentrations, forty eight hour incubation. How it is done:
RKO and HCT-116 cells were treated with Cpd. AAA, Cpd. BBB, and Cpd. CCC at varying concentrations. After a forty eight hour incubation cells were harvested for RNA isolation using the Qiagen RNeasy Mini kit. RNA was quantified using a spectrophotometer and 1 μg of RNA was used for cDNA synthesis using the Bio-Rad iScript cDNA Synthesis Kit. RTPCR was performed using SYBER GreenER qPCR SuperMix for iCycler according to the manufacturer's protocol. Primer sequences used are as follows [NT] (SEQ ID NO: 2) and [NT] (SEQ ID NO: 3), MLH-1 [NT] (SEQ ID NO: 4) and [NT] (SEQ ID NO:5), [NT] (SEQ ID NO: 6) and [NT] (SEQ ID NO: 7), GAPDH [NT] (SEQ ID NO:8) and [NT] (SEQ ID NO:9), and […] (SEQ ID NO: 10) and [NT] (SEQ ID NO:11). Samples were analyzed on the iQ5 Multicolor Real-Time PCR Detection System from Bio-Rad. Data analysis was performed using the iQ5 Optical System Software version 2.0, Threshold Cycle (CT) and CT mean values were determined from this software. For each sample there are at least four reactions, two for p16 and two for GAPDH the housekeeping control. The mean CT value from the GAPDH reactions was subtracted from each of the corresponding p16 samples CT giving a value termed Delta CT. Then the Delta CT for the untreated p16 sample is subtracted from all treated Delta CT values giving another value termed Delta Delta CT. […] The duplicate samples are averaged together to get an average Relative Expression for each treatment and the Standard Error is calculated. Relative expression values for p15 and MLH-1 were calculated using the same method. […] AAA, Cpd. BBB, and Cpd. […] Cpd. […] Because the higher levels of p16 seemed to have less effect in causing re-expression of p16 there may be some issues with drug solubility or toxicity at the higher concentrations tested.

The test system of another assay is HCT-116. The assay is described as follows: Cell-based growth assay (Cell-Titer-Glo), HCT-116. To be noted: Homo sapiens; HCT-116, 96 hours; read-out: IC50 Values CTG. How it is done:
(§1) Cell culture-based assays can be used to evaluate the ability of compounds of the invention to inhibit one or more cellular activities, such as cancer cell growth and/or survival. Numerous cancer cell lines can be obtained from the American Type Culture Collection (ATCC) and other sources. Briefly, cells are seeded into 96-well, tissue-culture treated, opaque white plates (Thermo Electron, Vantaa, Finland), at between 5000 and 10000 cells per well, depending on the speed of cell proliferation, in 100 μl of appropriate growth medium (determined by the ATCC). Cells are then exposed to the appropriate concentration of drug or an equal amount of DMSO (drug diluent) and allowed to grow in its presence for 96 hours. Following this, 100 μl of Cell-Titer-Glo (CTG) reagent (Promega, Inc., Madison, Wis.) is added to each well. Plates are then shaken for 2 minutes at room temperature to allow for cell lysis and incubated for 10 minutes at room temperature to stabilize the luminescent signal. Similar to the Kinase-Glo assay reagent from Promega, this reagent contains both luciferase enzyme and its substrate luciferin. Luciferase, activated by ATP in the cell lysate, catalyzes the conversion of luciferin to oxyluciferin, a reaction which produces light. […]

The next assay has as its system RKO. The assay can be described thus: Cell-based growth assay (Cell-Titer-Glo), RKO. Particulars: Homo sapiens, 96 hours, read-out: IC50 Values CTG. How it is done:
Cell culture-based assays can be used to evaluate the ability of compounds of the invention to inhibit one or more cellular activities, such as cancer cell growth and/or survival. Numerous cancer cell lines can be obtained from the American Type Culture Collection (ATCC) and other sources. Briefly, cells are seeded into 96-well, tissue-culture treated, opaque white plates (Thermo Electron, Vantaa, Finland), at between 5000 and 10000 cells per well, depending on the speed of cell proliferation, in 100 μl of appropriate growth medium (determined by the ATCC). Cells are then exposed to the appropriate concentration of drug or an equal amount of DMSO (drug diluent) and allowed to grow in its presence for 96 hours. Following this, 100 μl of Cell-Titer-Glo (CTG) reagent (Promega, Inc., Madison, Wis.) is added to each well. Plates are then shaken for 2 minutes at room temperature to allow for cell lysis and incubated for 10 minutes at room temperature to stabilize the luminescent signal. Similar to the Kinase-Glo assay reagent from Promega, this reagent contains both luciferase enzyme and its substrate luciferin. Luciferase, activated by ATP in the cell lysate, catalyzes the conversion of luciferin to oxyluciferin, a reaction which produces light. The amount of light produced is proportionate to the amount of ATP in the cell lysate, which is itself proportional to cell number and gives an index of cellular proliferation.

In the next assay the test system is Panc-1. The assay is described as follows: Cell-based growth assay (Cell-Titer-Glo), Panc-1. To be noted: Homo sapiens; Panc-1, 96 hours; read-out: IC50 Values CTG. On the procedure: as §1

For the compound `Cl.O=C(Nc1ccc(Sc2ccncc2)cc1)c1ccc(Nc2ccnc3ccccc23)cc1` [Cpd. AAA, N-[4-(pyridin-4-ylthio)phenyl]-4-(quinolin-4-ylamino)benzamide hydrochloride], the “RNA expression levels of p16” value in the assay on p16 was “increase the RNA expression levels of p16”. In addition, the “re-expression of p16 over no treatment” value with p16 (concentration of 0.11 M (so in the source)) was “greatest re-expression of p16”. Besides, the half-inhibitory concentration (IC50) was found to be 6150 nM with HCT-116, 1220 nM in the assay on RKO and 1800 nM with Panc-1.

With `Cl.Nc1cc(Sc2ccc(NC(=O)c3ccc(Nc4ccnc5ccccc45)cc3)cc2)ccn1` [Cpd. BBB, N-[4-(2-aminopyridin-4-ylthio)phenyl]-4-(quinolin-4-ylamino)benzamide hydrochloride], in the assay on p16, the “RNA expression levels of p16” value is recorded as “increase the RNA expression levels of p16”. Also, the IC50 is 670 nM in the assay on HCT-116, 740 nM in the assay on RKO and 1000 nM in the assay on Panc-1.

Usually IC50 stands for the concentration needed to halve the response being measured.
